What was measured:
human Myo-X = assay: Knockdown of Myo-X using siRNA in epidermal melanocytes (western blot, immunofluorescence); assay type: cell-based
Method: (§1) Knockdown of Myo-X using siRNA: A synthetic siRNA targeting human Myo-X (5′-[…]-3′) (SEQ ID No 1) and a non-silencing control, consisting of siRNA that has no known homology with mammalian genes (5′-[…]-3′) (SEQ ID No 2) was obtained from Qiagen, Valencia, Calif. A day before siRNA treatment, 5×10^5 epidermal melanocytes per well were plated onto six-well plates at 50-60% confluency and incubated at 37° C. for 12 h. Cells were then treated for 12 h with a final concentration of 25 nM siRNA by using HiPerFect Transfection Reagent (Qiagen, Valencia, Calif.) following the manufacturer's instructions. Fluorescence microscopy was used to verify that approximately 100% of the cells (using non-silencing control labelled with alexa fluor 488 labels) had taken up the siRNA. At 12 h, the cells from each well were replated into 8-well Lab-Tek® chamber slides. For co-culture studies siRNA treated melanocytes were seeded with normal keratinocytes (passage 2) in 8-well Lab-Tek® chamber slides at a cell density of 2×10^4 cells/well and in a ratio of 1 siRNA treated melanocyte to 10 normal keratinocytes. At 24 h the co-culture were processed for double Immunofluorescence staining with gp100 and cytokeratin or Myo-X to study of the influence of gene knockdown on melanosome transfer, and parallel samples were assayed by immunofluorescence staining and western blot analysis to verify gene knockdown. […]

[1] = system: melanosome transfer from melanocytes to keratinocytes; assay: Melanosome transfer after knockdown of Myo-X expression in epidermal melanocytes-keratinocytes co-culture; assay type: cell-based, human; conditions: Myo-X-silenced melanocytes cultured with normal keratinocytes 24 h; vs non-silencing control siRNA
Method: as §1, with “keratinocytes.” for “keratinocytes. At 24 h the co-culture were processed for double Immunofluorescence staining with gp100 and cytokeratin or Myo-X to study of the influence of gene knockdown on melanosome transfer, and parallel samples were assayed by immunofluorescence staining and western blot analysis to verify gene knockdown.”
Using this assay the rate of melanosome transfer from melanocytes to keratinocytes with non-silencing control siRNA conditions was determined (FIG. 8). […]

[2] = system: Normal human epidermal melanocytes (F52; p5); assay: Melanin assay (melanogenesis) in normal pigmented human melanocytes; assay type: cell-based; conditions: 72 h
Method: Cells were then washed 3-times with sterile PBS and supplemented with 350 μl of either fresh serum-free RPMI medium (melanoma cells) or starved serum-free and BPE-free melanocyte medium (EM) and incubated at 37° C. and 5% CO2 for 24 h. Cells were then washed with sterile PBS 3-times and incubated with IBMX 1×10^-4 M at 37° C. and 5% CO2 for 12, 24, and 72 h. Cells were then gently washed 3-times with sterile PBS and fixed in ice-cold methanol for 10 minutes at -20° C. Slides were stored at -20° C. until immunocytochemistry was performed. […] The melanin standards were pipetted into a 96 well plate to produce a calibration curve for the assessment of melanin content in the test samples. 400 μl of 1 M NaOH was added to each cell pellet and dissolved on a heat block (100° C.) for 15 minutes. The pellets were vortexed vigorously and the solubilized pellet was pipetted into the same 96-well plate. The optical densities of the sample were read at […] on a DYNEX REVELATION 4.02 program. Melanin content of each test sample was read from the calibration curve. […] In addition IBMX and NH4Cl (positive melanocytic modulators) and niacinamide (negative modulator) were used as controls. Visible change was not particularly evident in normal melanocyte due to their already high basal melanin levels (FIG. 1). By contrast, visible change was evident in melanoma cells basal melanin levels were low (FIG. 2). […] Normal human epidermal melanocytes (Female-52; p5) were treated for 72 h with L-18 (0.001%), L-19 (1%), L-20 (0.5%), L-21 (10 μg/ml), L-22 (1%) and L-23 (0.05 μg/ml). Controls: Melanocytic modulators: IBMX (100 μM), NH4Cl (100 μM), and niacinamide (10 μM). (A) Melanin content was determined spectro-photometrically (475 nm) after sodium hydroxide solubilise (B) Visible change was not particularly evident in these cells due to their already high basal melanin levels. Results were expressed as change in melanin content (pg/cell) compared to unstimulated control levels. Means are ±SEM of 3 independent experiments with *P<0.05, **P<0.01, ***P<0.001. NS-Not Significant

FM55 melanoma cells = assay: Melanin assay (melanogenesis) in moderately-pigmented FM55 melanoma; assay type: cell-based, human; conditions: 72 h
Method: Cells were then washed 3-times with sterile PBS and supplemented with 350 μl of either fresh serum-free RPMI medium (melanoma cells) or starved serum-free and BPE-free melanocyte medium (EM) and incubated at 37° C. and 5% CO2 for 24 h. Cells were then washed with sterile PBS 3-times and incubated with IBMX 1×10^-4 M at 37° C. and 5% CO2 for 12, 24, and 72 h. Cells were then gently washed 3-times with sterile PBS and fixed in ice-cold methanol for 10 minutes at -20° C. Slides were stored at -20° C. until immunocytochemistry was performed. […] The melanin standards were pipetted into a 96 well plate to produce a calibration curve for the assessment of melanin content in the test samples. 400 μl of 1 M NaOH was added to each cell pellet and dissolved on a heat block (100° C.) for 15 minutes. The pellets were vortexed vigorously and the solubilized pellet was pipetted into the same 96-well plate. The optical densities of the sample were read at […] on a DYNEX REVELATION 4.02 program. Melanin content of each test sample was read from the calibration curve. […] In addition IBMX and NH4Cl (positive melanocytic modulators) and niacinamide (negative modulator) were used as controls. […] Controls: Melanocytic modulators: IBMX (100 μM), NH4Cl (100 μM), and niacinamide (10 μM). (A) Melanin content was determined spectrophotometrically (475 nm) after sodium hydroxide solubilisation. […] (B). Results were expressed as the change in melanin content (pg/cell) compared to unstimulated control levels. Means are ±SEM of 3 independent experiments with *P<0.05, **P<0.01, ***P<0.001.

tyrosinase [3] = assay: DOPA oxidase detection for tyrosinase activity in pigmented normal human melanocytes; assay type: cell-based; conditions: 72 h
Method: The cells were prepared for SDS-PAGE and transblotted onto PVDF membranes. 70 μg of un-reduced protein extract without boiling was pipetted into the appropriate wells of 8% SDS-PAGE gels. […] The L-DOPA reaction was stopped by washing the membrane in distilled water and the membrane was scanned. […] In addition IBMX and NH4Cl (positive melanocytic modulators) and niacinamide (negative modulator) were used as controls. […] Normal human epidermal melanocytes (Female-52; p5) were treated for 72 h with L-18 (0.001%), L-19 (1%), L-20 (0.5%), L-21 (10 μg/ml), LVMH-22 (1%) and L-23 (0.05 μg/ml). Controls: Melanocytic modulators: IBMX (100 μM), NH4Cl (100 μM), and niacinamide (10 μM). (A) Protein extracts were electroblotted and membranes stained with L-DOPA for the estimation of tyrosinase activity.

tyrosinase [4] = assay: DOPA oxidase detection for tyrosinase activity in FM55 melanoma; assay type: cell-based, human; conditions: 72 h
Method: The cells were prepared for SDS-PAGE and transblotted onto PVDF membranes. 70 μg of un-reduced protein extract without boiling was pipetted into the appropriate wells of 8% SDS-PAGE gels. […] The L-DOPA reaction was stopped by washing the membrane in distilled water and the membrane was scanned. […] In addition IBMX and NH4Cl (positive melanocytic modulators) and niacinamide (negative modulator) were used as controls. […] Controls: Melanocytic modulators: IBMX (100 μM), NH4Cl (100 μM), and niacinamide (10 μM.). (A) Protein extracts were electroblotted and membranes stained with L-DOPA for the estimation of tyrosinase activity. (B) Densitometric scanning of band intensities and values were expressed as the fold increase compared to unstimulated control levels. Means are ±SEM of 3 independent experiments with *P<0.05, **P<0.01, ***P<0.001.

[5] = L-18 0.001%, L-19 1%, L-20 0.5%, L-21 10 μg/ml, L-22 1%, L-23 0.05 μg/ml, IBMX 100 μM, NH4Cl 100 μM, niacinamide 10 μM, vs basal

| Compound | expression of Myo-X compared to non-silencing control siRNA (human Myo-X; 25 nM siRNA, 12 h, immunofluorescence) | filopodia in Myo-X-silenced melanocytes (human Myo-X; anti-gp100 double-immunolabelling) | melanosome transfer reduced by [1] [%] | Changes in melanin levels, F52 EM % change [2, 5] | Melanin content, F52 EM (pg/cell) ([2]; same doses as E1, basal 35.63) | Changes in melanin levels, FM55 % change (FM55 melanoma cells; [5]) | Melanin content, FM55 (pg/cell) (FM55 melanoma cells; same doses as E3, basal 9.92) | effect on melanin content compared with basal levels (FM55 melanoma cells; FM55 melanoma cells, doses as E3) | Changes in tyrosinase activity, F52 EMc % change (tyrosinase [3]; [5]) | effect on tyrosinase (dopa oxidase) activity compared with basal levels (tyrosinase [3]; normal melanocytes (EM), doses as E5) | Changes in tyrosinase activity, FM55 % change (tyrosinase [4]; same doses as E5, vs basal) | effect on tyrosinase (dopa oxidase) activity compared with basal levels (tyrosinase [4]; FM55 melanoma cells, doses as E5) |
| --- | --- | --- | --- | --- | --- | --- | --- | --- | --- | --- | --- | --- |
| siRNA targeting human Myo-X: synthetic siRNA targeting human Myo-X (5′-CAGCGGTATAAGAGAAATCAA-3′), obtained from Qiagen (listed as DNA, chemistry not given here; listed as Homo sapiens) | almost completely inhibited | absence of filopodia | 80 | – | – | – | – | – | – | – | – | – |
| Cl.N [NH4Cl] | – | – | – | +166.17% | (94.83) pg/cell | +478.82% | (56.83) pg/cell | visible increases in melanogenesis | +159.63% | dramatic increase in dopa oxidase activity of tyrosinase | +408.27% | dramatic increase in dopa oxidase activity of tyrosinase |

— US9668960B2, “Methods useful in studying or modulating skin or hair pigmentation, plant extracts for use in compositions and cosmetic care method” (L V M H RECHERCHE, priority 2008, dated 2017)
